Experiments:
shepherd's purse (CAPBP) = experiment: Postemergence greenhouse trial, % visual injury on shepherd's purse; format: in vivo, Capsella bursa-pastoris; details: CAPBP, CQC-m 0
Protocol: (§1) Seeds of the desired test plant species were planted in Sun Gro MetroMix® 306 planting mixture, which typically has a pH of 6.0 to 6.8 and an organic matter content of about 30 percent, in plastic pots with a surface area of 103.2 square centimeters (cm^2). When required to ensure good germination and healthy plants, a fungicide treatment and/or other chemical or physical treatment was applied. The plants were grown for 7-36 days (d) in a greenhouse with an approximate 14-hour (h) photoperiod which was maintained at about 23° C. during the day and 22° C. during the night. Nutrients and water were added on a regular basis and supplemental lighting was provided with overhead metal halide 1000-Watt lamps as necessary. The plants were employed for testing when they reached the second or third true leaf stage.
(§2) Weighed amounts of technical material were dissolved in a volume of 97:3 volume per volume (v/v) acetone/dimethyl sulfoxide (DMSO) to stock solutions. […] The concentrated stock solutions were diluted with an aqueous mixture of 1.5% v/v of Agri-dex crop oil concentrate to provide the appropriate application rates. Compound requirements are based upon a 12 milliliter (mL) application volume at a rate of 187 liters per hectare (L/ha). Stocks solutions of the safeners were prepared following the same procedure. Spray solutions of the safeners and experimental compound mixtures were prepared by adding the stock solutions to the appropriate amount of dilution solution to form a 12 mL spray solution in two-way combinations. Formulated compounds were applied to the plant material with an overhead Mandel track sprayer equipped with 8002E nozzles calibrated to deliver 187 L/ha over an application area of 0.503 square meters (m^2) at a spray height of 18 inches (43 centimeters (cm)) above average plant canopy. Control plants were sprayed in the same manner with the solvent blank. All herbicide application (component a) rates are in g ae/ha and all safener (component b) rates are in g ai/ha.
(§3) The treated plants and control plants were placed in a greenhouse as described above and watered by sub-irrigation to prevent wash-off of the test compounds. After 20-22 d, the condition of the test plants as compared with that of the control plants was determined visually and scored on a scale of 0 to 100 percent where 0 corresponds to no injury and 100 corresponds to complete kill. The condition of the test plants was compared with that of the control plants as determined visually and scored on a scale of 0 to 100 percent, where 0 corresponds to no injury and 100 corresponds to complete kill. Colby's equation was used to determine the herbicidal effects expected from the mixtures.
(§4) The safener cloquintocet-mexyl was combined with compound 1, compound 2, compound 3, compound 7, compound 8, compound 9, compound 10, compound 11, compound 12, compound 13, compound 14, compound 15, compound 16, compound 17, compound 18, compound 19, and compound 20, and applied to spring wheat (TRZAS), winter wheat (TRZAW), and spring barley (HORVS) and the phytotoxicity of the herbicidal compositions was measured. […]

wild chamomile (MATCH) = experiment: Postemergence greenhouse trial, % visual injury on wild chamomile; format: in vivo, Matricaria chamomilla; details: CQC-m 0
Protocol: as §1, §2
as §3, with “mixtures. […]” for “mixtures.”

cleavers (GALAP) = experiment: Postemergence greenhouse trial, % visual injury on cleavers; format: in vivo, Galium aparine
Protocol: as §1, §2, §3, §4

prickly lettuce (LACSE) = experiment: Postemergence greenhouse trial, % visual injury on prickly lettuce; format: in vivo, Lactuca serriola; details: LACSE, CQC-m 0 g/ha
Protocol: as §1, §2
as §3, with “mixtures. […]” for “mixtures.”

[1] = compound 4.375 g/ha, CQC-m 0 g/ha
[2] = compound 8.75 g/ha, CQC-m 0 g/ha
[3] = compound 17.5 g/ha, CQC-m 0 g/ha

COC(=O)c1nc(-c2ccc3cc[nH]c3c2F)c(F)c(N)c1OC [compound 12]
% visual injury, Ob (shepherd's purse (CAPBP); compound 4.380 g/ha): 70% | % visual injury, Ob (shepherd's purse (CAPBP); compound 17.5 g/ha): 100% | % visual injury, Ob (shepherd's purse (CAPBP); compound 70 g/ha): 100% | % visual injury, Ob (wild chamomile (MATCH); compound 4.380 g/ha): 5% | % visual injury, Ob (wild chamomile (MATCH); compound 8.75 g/ha): 3% | % visual injury, Ob (wild chamomile (MATCH); compound 17.5 g/ha): 7% | % visual injury, Ob (wild chamomile (MATCH); compound 35 g/ha): 10% | % visual injury, Ob (wild chamomile (MATCH); compound 70 g/ha): 13%

COc1c(C(=O)O)nc(-c2ccc3cc[nH]c3c2F)c(F)c1N [compound 13]
% visual injury, Ob (cleavers (GALAP); [1]): 40% | % visual injury, Ob (cleavers (GALAP); [2]): 70% | % visual injury, Ob (cleavers (GALAP); [3]): 80% | % visual injury, Ob (cleavers (GALAP); compound 35 g/ha, CQC-m 0 g/ha): 100% | % visual injury, Ob (cleavers (GALAP); compound 70 g/ha, CQC-m 0 g/ha): 100% | % visual injury, Ob (prickly lettuce (LACSE); compound 4.375 g/ha): 85% | % visual injury, Ob (prickly lettuce (LACSE); compound 8.75 g/ha): 93% | % visual injury, Ob (prickly lettuce (LACSE); compound 17.5 g/ha): 95% | % visual injury, Ob (prickly lettuce (LACSE); compound 35 g/ha): 95% | % visual injury, Ob (prickly lettuce (LACSE); compound 70 g/ha): 100%

Nc1cc(-c2ccc3cc[nH]c3c2F)nc(C(=O)O)c1Cl [compound 15]
% visual injury, Ob (cleavers (GALAP); [1]): 85% | % visual injury, Ob (cleavers (GALAP); [2]): 85% | % visual injury, Ob (cleavers (GALAP); [3]): 93% | % visual injury, Ob (cleavers (GALAP); compound 35 g/ha, CQC-m 0 g/ha): 93% | % visual injury, Ob (cleavers (GALAP); compound 70 g/ha, CQC-m 0 g/ha): 90%

Nc1c(F)c(-c2ccc3scnc3c2)nc(C(=O)O)c1Cl [compound 17]
% visual injury, Ob (cleavers (GALAP); 4.375 g/ha, applied alone): 50% | % visual injury, Ob (cleavers (GALAP); 8.75 g/ha, applied alone): 60% | % visual injury, Ob (cleavers (GALAP); 17.5 g/ha, applied alone): 70% | % visual injury, Ob (cleavers (GALAP); 35 g/ha, applied alone): 90% | % visual injury, Ob (cleavers (GALAP); 70 g/ha, applied alone): 90%
